Counter-ions that a name gives are not always drawn. Bounds are passed on as bounds.

`CN1C(=O)c2cccn2-c2cc(-c3ccc(N4CCOCC4)nc3)ccc2C12CC2` (as salt: hydrochloride) [Example 42, 5-Methyl-9-(6-morpholin-4-yl-pyridin-3-yl)-spiro[benzo[f]pyrrolo[1,2-a][1,4]diazepine-6,1′-cyclopropan]-4(5H)-one] returned a melting point of 191 to 199 °C. Under `CN1C(=O)c2cc(-c3ccccc3)cn2-c2cc(-c3cncnc3)ccc2C12CC2` (as salt: hydrochloride) [Example 104, 5-Methyl-2-phenyl-9-(pyrimidin-5-yl)-spiro[benzo[f]pyrrolo[1,2-a][1,4]diazepine-6,1′-cyclopropan]-4(5H)-one] stands 168 to 173 °C; under `Cc1ncccc1-c1ccc2c(c1)-n1cccc1C(=O)N(C)C2(C)C` (as salt: hydrochloride) [Example 223, 5,6,6-Trimethyl-9-(2-methyl-pyridin-3-yl)-5,6-dihydro-benzo[f]pyrrolo[1,2-a][1,4]diazepin-4-one], 230 to 250 °C; under `Cc1ncccc1-c1ccc2c(c1F)-n1cccc1C(=O)N(C)C21CC1` (as salt: hydrochloride) [Example 75, 10-Fluoro-5-methyl-9-(2-methyl-pyridin-3-yl)-spiro[benzo[f]pyrrolo[1,2-a][1,4]diazepine-6,1′-cyclopropan]-4(5H)-one], 166 to 184 °C. To `Cc1cc(-c2ccc3c(c2)-n2cc(-c4ccccc4)cc2C(=O)N(C)C32CC2)cc(C)n1` (as salt: hydrochloride) [Example 97, 5-Methyl-2-phenyl-9-(2,6-dimethyl-pyridin-4-yl)-spiro[benzo[f]pyrrolo[1,2-a][1,4]diazepine-6,1′-cyclopropan]-4(5H)-one] belongs 227 to 234 °C. Molecule `Cc1ncccc1-c1ccc2c(c1)-n1nc(-c3ccccc3)cc1C(=O)N(C)C21CC1` (as salt: hydrochloride) [Example 125, 9-(2-Methyl-pyridin-3-yl)-5-methyl-2-phenyl-spiro[benzo[f]pyrazolo[1,5-a][1,4]diazepine-6,1′-cyclopropan]-4(5H)-one] yielded a melting point of 185 to 206 °C. In turn, `Cc1ncccc1-c1ccc2c(c1)-n1cc(-c3ccccc3)nc1C(=O)N(C)C2` (as salt: hydrochloride) [Example 166, 5-Methyl-9-(2-methylpyridin-3-yl)-2-phenyl-5,6-dihydro-4H-benzo[f]imidazo[1,2-a][1,4]diazepin-4-one] showed a melting point of 240 to 245 °C. To `Cc1ncccc1-c1ccc2c(c1)-n1cc(-c3ccc(F)cc3)cc1C(=O)N(C)C21CC1` (as salt: hydrochloride) [Example 150] belongs 226 to 230 °C; to `CN1C(=O)c2cc(-c3ccccc3)cn2-c2cc(-c3cccnc3)ccc2C12CC2` (as salt: hydrochloride) [Example 93, 5-Methyl-2-phenyl-9-pyridin-3-yl-spiro[benzo[f]pyrrolo[1,2-a][1,4]diazepine-6,1′-cyclopropan]-4(5H)-one], 218 to 222 °C. In turn, `Cc1ncccc1-c1ccc2c(c1)-n1cc(-c3ccccc3F)cc1C(=O)N(C)C21CC1` (as salt: hydrochloride) [Example 151] came in with a melting point of 185 to 190 °C. Consider `CN1C(=O)c2cccn2-c2cc(-c3ccncc3)ccc2C12CC2` (as salt: hydrochloride) [Example 22, 5-Methyl-9-(pyridin-4-yl)-spiro[benzo[f]pyrrolo[1,2-a][1,4]diazepine-6,1′-cyclopropan]-4(5H)-one], for which the melting point is over 250 °C. Under `CN1C(=O)c2cccn2-c2cc(-c3cccnc3)ccc2C12CC2` (as salt: hydrochloride) [Example 23, 5-Methyl-9-(pyridin-3-yl)-spiro[benzo[f]pyrrolo[1,2-a][1,4]diazepine-6,1′-cyclopropan]-4(5H)-one] stands over 250 °C; under `CN1C(=O)c2cccn2-c2cc(C3=CCN(c4ccncn4)CC3)ccc2C12CC2` (as salt: hydrochloride) [Example 47, 5-Methyl-9-(1-pyrimidin-4-yl-1,2,3,6-tetrahydro-pyridin-4-yl)-spiro[benzo[f]pyrrolo[1,2-a][1,4]diazepine-6,1′-cyclopropan]-4(5H)-one], 210 to 220 °C; under `Cc1cc(-c2ccc3c(c2)-n2nc(-c4ccccc4)cc2C(=O)N(C)C32CC2)ccn1` (as salt: hydrochloride) [Example 122, 9-(2-Methyl-pyridin-4-yl)-5-methyl-2-phenyl-spiro[benzo[f]pyrazolo[1,5-a][1,4]diazepine-6,1′-cyclopropan]-4(5H)-one], over 250 °C. As to `Cc1ncccc1-c1ccc2c(c1)-n1cc(-c3cccc(F)c3)cc1C(=O)N(C)C21CC1` (as salt: hydrochloride) [Example 152], the melting point was 183 to 190 °C. To `Cc1ccc(-c2ccc3c(c2)-n2cc(-c4ccccc4)cc2C(=O)N(C)C32CC2)c(C)n1` (as salt: hydrochloride) [Example 107, 5-Methyl-2-phenyl-9-(2,6-dimethyl-pyridin-3-yl)-spiro[benzo[f]pyrrolo[1,2-a][1,4]diazepine-6,1′-cyclopropan]-4(5H)-one] belongs 206 to 214 °C; to `CN1C(=O)c2cccn2-c2cc(-c3cccnc3C3CC3)ccc2C12CC2` (as salt: hydrochloride) [Example 62, 5-Methyl-9-(2-cyclopropylpyridin-3-yl)-spiro[benzo[f]pyrrolo[1,2-a][1,4]diazepine-6,1′-cyclopropan]-4(5H)-one], 160 to 180 °C. Under `Cc1ccc(-c2ccc3c(c2)-n2cccc2C(=O)N(C)C32CC2)cn1` (as salt: hydrochloride) [Example 25, 5-Methyl-9-(6-methylpyridin-3-yl)-spiro[benzo[f]pyrrolo[1,2-a][1,4]diazepine-6,1′-cyclopropan]-4(5H)-one] stands 205 to 215 °C; under `Cc1ncccc1-c1ccc2c(c1)-n1cc(-c3nccs3)cc1C(=O)N(C)C21CC1` (as salt: hydrochloride) [Example 157], 240 to 245 °C; under `CN1C(=O)c2cc(-c3ccccc3)cn2-c2cc(-c3ccncc3)ccc2C12CC2` (as salt: hydrochloride) [Example 102, 5-Methyl-2-phenyl-9-(pyridin-4-yl)-spiro[benzo[f]pyrrolo[1,2-a][1,4]diazepine-6,1′-cyclopropan]-4(5H)-one], 220 to 230 °C.

Turning to `Cc1ncccc1-c1cc2c(cc1F)C1(CC1)N(C)C(=O)c1cccn1-2` (as salt: hydrochloride) [Example 77, 8-Fluoro-5-methyl-9-(2-methyl-pyridin-3-yl)-spiro[benzo[f]pyrrolo[1,2-a][1,4]diazepine-6,1′-cyclopropan]-4(5H)-one], the melting point fell in the range of 200 to 210 °C.

Molecule `Cc1ncccc1-c1cccc2c1-n1cccc1C(=O)N(C)C21CC1` (as salt: hydrochloride) [Example 92, 10-(2-Methyl-pyridin-3-yl)-5-methyl-spiro[benzo[f]pyrrolo[1,2-a][1,4]diazepine-6,1′-cyclopropan]-4(5H)-one] displayed a melting point of 250 °C. To `Cc1ncccc1-c1ccc2c(c1)-n1cc(-c3ccccc3)cc1C(=O)N(C)C21CC1` (as salt: hydrochloride) [Example 95, 5-Methyl-2-phenyl-9-(2-methyl-pyridin-3-yl)-spiro[benzo[f]pyrrolo[1,2-a][1,4]diazepine-6,1′-cyclopropan]-4(5H)-one] belongs 174 to 180 °C; to `CC1c2ccc(-c3ccc(N(C)C)nc3)cc2-n2cccc2C(=O)N1C` (centres unmarked) (as salt: hydrochloride) [Example 219, 9-(6-Dimethylamino-pyridin-3-yl)-5,6-dimethyl-5,6-dihydro-benzo[f]pyrrolo[1,2-a][1,4]diazepin-4-one], 145 to 162 °C; to `Cc1ncccc1-c1ccc2c(c1)-n1cc(C3CC3)cc1C(=O)N(C)C21CC1` (as salt: hydrochloride) [Example 155], 190 to 198 °C.

`Cc1ncccc1-c1ccc2c(c1)-n1cc(-c3ccccc3)nc1C(=O)N(C)C21CC1` (as salt: hydrochloride) [Example 140, 9-(2-Methyl-pyridin-3-yl)-5-methyl-2-phenyl-spiro[benzo[f]imidazo[1,2-a][1,4]diazepine-6,1′-cyclopropan]-4(5H)-one]: the melting point is 235 to 240 °C. To `Cc1ccncc1-c1ccc2c(c1)-n1cc(-c3ccccc3)cc1C(=O)N(C)C21CC1` (as salt: hydrochloride) [Example 101, 5-Methyl-2-phenyl-9-(4-methyl-pyridin-3-yl)-spiro[benzo[f]pyrrolo[1,2-a][1,4]diazepine-6,1′-cyclopropan]-4(5H)-one] belongs 205 to 217 °C; to `CN1C(=O)c2cc(-c3ccccc3)cn2-c2cc(-c3ccc(N)nc3)ccc2C12CC2` (as salt: hydrochloride) [Example 96, 5-Methyl-2-phenyl-9-(6-amino-pyridin-3-yl)-spiro[benzo[f]pyrrolo[1,2-a][1,4]diazepine-6,1′-cyclopropan]-4(5H)-one], over 250 °C; to `Cc1nccnc1-c1ccc2c(c1)-n1cccc1C(=O)N(C)C21CC1` (as salt: hydrochloride) [Example 58, 5-Methyl-9-(3-methyl-pyrazin-2-yl)-5,6-spiro[benzo[f]pyrrolo[1,2-a][1,4]diazepine-6,1′-cyclopropan]-4(5H)-one], 123 to 129 °C.

In the case of `Cc1ccc(-c2ccc3c(c2)-n2cc(-c4ccnn4C)cc2C(=O)N(C)C32CC2)cn1` (as salt: hydrochloride) [Example 159], the melting point lay within 187 to 194 °C. Under `Cc1ncccc1-c1ccc2c(c1)-n1cc(C(=O)C3CCCC3)cc1C(=O)N(C)C21CC1` (as salt: hydrochloride) [Example 194] stands 177 to 190 °C; under `Cc1cc2n(c1)-c1cc(-c3cccnc3C)ccc1C1(CC1)N(C)C2=O` (as salt: hydrochloride) [Example 144], 162 to 175 °C.

As a reminder, the melting point is the temperature, or range, at which the solid turns liquid.

(Values after US11008323B2, “Substituted tricyclic 1,4-benzodiazepinone derivatives as allosteric modulators of group II metabotropic glutamate receptors” (Domain Therapeutics, priority 2015, dated 2021).)
